In patent publication US20080020932A1, “Method for Combating Weeds” (Bayer Cropscience AG, priority 2004, published 2008):

Tested on: Apera spica-venti
Test: Postemergence field trials in winter wheat: herbicidal activity
Format: in vivo
Conditions: field trials carried out
Method: The compound of the formula (I) was tested under field conditions in Winter wheat in Germany and Poland against the economically significant weed Apera spica-venti. The plot trials were instituted on cultivated land used agriculturally, and the conditions of cultivation and climate can be regarded as being representative over the period under investigation. Areas with a particularly high weed population were selected preferentially.
The active ingredient was applied postemergence (spring) across the area by spraying with a medium droplet size. An appropriate preparation of active ingredient was produced by formulating the active ingredient as a 10 WP (10% w/w water-dispersible powder), mixed with the safener mefenpyr-diethyl as a 15 WG (15% w/w water-dispersible granules) and with alkyl ether sulfates as an additive, and applied with customary amounts of water.
For the assessment of crop tolerance, instances of plant growth inhibition or lightening of the leaf area were rated in % damage in comparison to the development of the untreated control, 1 to 7 weeks after treatment. The herbicidal activity was assessed at a number of times after treatment, based on the development of weeds, as a % reduction in comparison to the untreated control. For these purposes: • 0%=no damage to crop or no herbicidal action; • 100%=total destruction of the crop or of the weeds, respectively.

SMILES: COC(=O)c1csc(C)c1S(=O)(=O)NC(=O)n1nc(OC)n(C)c1=O [compound of the formula (I), 5-methoxy-4-methyl-2-[(4-methoxycarbonyl-2-methylthien-3-yl)sulfonylaminocarbonyl]-2,4-dihydro-3H-1,2,4-triazol-3-one]
- control of the annual varieties of Apera spica-venti in cereals (in words): particularly effective
